In patent publication US20180194762A1 (Pharmacyclics LLC, priority 2017, published 2018) one finds IC50 and TEC/Btk data, which are given here for 15 compounds.

Common to all, as to format: biochemical
One experiment addresses T1, panel of kinases (Homo sapiens, UniProt P51813).
T1 sequence (P51813 1-675): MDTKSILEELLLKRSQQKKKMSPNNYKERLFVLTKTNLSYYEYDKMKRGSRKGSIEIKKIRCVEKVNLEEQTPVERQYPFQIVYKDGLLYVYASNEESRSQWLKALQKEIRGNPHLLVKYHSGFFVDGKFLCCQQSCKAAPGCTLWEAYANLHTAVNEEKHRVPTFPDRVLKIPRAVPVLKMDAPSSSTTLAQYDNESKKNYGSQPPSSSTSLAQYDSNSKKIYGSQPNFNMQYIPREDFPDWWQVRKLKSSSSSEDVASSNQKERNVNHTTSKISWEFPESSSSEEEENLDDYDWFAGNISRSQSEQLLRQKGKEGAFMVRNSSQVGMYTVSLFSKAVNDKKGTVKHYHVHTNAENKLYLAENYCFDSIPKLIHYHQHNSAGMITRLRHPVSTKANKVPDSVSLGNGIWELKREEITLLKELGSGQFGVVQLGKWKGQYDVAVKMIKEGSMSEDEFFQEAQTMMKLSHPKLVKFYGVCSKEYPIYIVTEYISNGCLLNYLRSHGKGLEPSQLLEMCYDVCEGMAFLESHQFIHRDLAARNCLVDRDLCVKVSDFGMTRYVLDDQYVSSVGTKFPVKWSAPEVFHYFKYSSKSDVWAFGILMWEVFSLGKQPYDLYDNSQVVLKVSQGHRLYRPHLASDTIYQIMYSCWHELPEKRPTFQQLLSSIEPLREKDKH
Kind of experiment: Inhibition of a panel of kinases (in vitro HotSpot kinase assay, 33P-ATP, 1 μM ATP), other kinases. Conditions: BMX wild-type, read-out: BMX-WT IC50. Here is the method: Example 63: Inhibition of a Panel of Kinases The degree of inhibition of a panel of kinases is determined using the in vitro HotSpot kinase assay (purified enzymes, ^33P-ATP, an appropriate substrate and 1 μM ATP).

Another experiment addresses T2, TEC (Homo sapiens, UniProt P42680).
T2 sequence (P42680 1-631): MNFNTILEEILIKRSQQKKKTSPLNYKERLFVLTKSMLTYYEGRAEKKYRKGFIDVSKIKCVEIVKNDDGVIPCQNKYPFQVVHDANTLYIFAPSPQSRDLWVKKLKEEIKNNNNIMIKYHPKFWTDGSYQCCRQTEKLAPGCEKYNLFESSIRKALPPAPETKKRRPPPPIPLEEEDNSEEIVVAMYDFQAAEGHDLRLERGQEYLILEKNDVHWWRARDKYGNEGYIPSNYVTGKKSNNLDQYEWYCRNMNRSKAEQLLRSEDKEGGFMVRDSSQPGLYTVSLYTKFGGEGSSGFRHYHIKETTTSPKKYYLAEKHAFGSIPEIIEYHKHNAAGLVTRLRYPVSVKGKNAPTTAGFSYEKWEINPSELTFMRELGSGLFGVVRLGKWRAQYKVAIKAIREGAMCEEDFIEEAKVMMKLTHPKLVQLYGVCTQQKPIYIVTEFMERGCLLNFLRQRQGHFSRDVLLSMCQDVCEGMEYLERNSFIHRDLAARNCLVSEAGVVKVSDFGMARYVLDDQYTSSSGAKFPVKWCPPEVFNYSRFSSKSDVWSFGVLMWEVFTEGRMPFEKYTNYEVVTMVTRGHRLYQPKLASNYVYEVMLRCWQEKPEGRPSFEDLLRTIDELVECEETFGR
Kind of experiment: Inhibition of a panel of kinases (in vitro HotSpot kinase assay, 33P-ATP, 1 μM ATP). To be noted: for IC50: HotSpot kinase assay, 1 μM ATP; for TEC/Btk: ratio of TEC IC50 to Btk IC50 (selectivity). The method, boiled down: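 At 1 μM ATP spiked with 33P-ATP, substrate phosphorylation by the purified enzymes gives the extent of inhibition.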

The next experiment deals with T3, Btk (Homo sapiens, UniProt Q06187).
T3 construct: purified from insect cells as a full-length construct containing a N-terminal 6X-His tag; His6 (N); made in house; host or cells: insect cells (Method C)
Briefly: Btk in vitro inhibitory activity (one of Method A TR-FRET, Method B electrophoretic mobility shift, Method C radiometric filter binding). A digest of the protocol:
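Three alternative formats were used. A radiometric filter-binding read used 8 nM full-length His-BTK with 0.2 mg/mL poly(Glu-Tyr) 4:1 (C); microfluidic separation of 1 μM FAM-peptide by 1 nM BTK gave IC50 from 12-point curves (B); TR-FRET at Km ATP, 0.5 nM Btk, gave Ki(app)-derived IC50 (A).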
On the technique in general: In EMSA bound probe runs differently from free probe, usually more slowly.

The mark [1] stands for this setting: wild-type Btk, read-out: Btk-WT IC50.
[2] abbreviates: method is one of A, B or C, not stated which, read-out: IC50 values against Btk.

The IC50 is the concentration that inhibits the measured activity by half.

Like-named read-outs stand apart in the source and are kept apart here. Where only a bound is given, the exact number is not on record here.

T3 sequence (Q06187 whole entry): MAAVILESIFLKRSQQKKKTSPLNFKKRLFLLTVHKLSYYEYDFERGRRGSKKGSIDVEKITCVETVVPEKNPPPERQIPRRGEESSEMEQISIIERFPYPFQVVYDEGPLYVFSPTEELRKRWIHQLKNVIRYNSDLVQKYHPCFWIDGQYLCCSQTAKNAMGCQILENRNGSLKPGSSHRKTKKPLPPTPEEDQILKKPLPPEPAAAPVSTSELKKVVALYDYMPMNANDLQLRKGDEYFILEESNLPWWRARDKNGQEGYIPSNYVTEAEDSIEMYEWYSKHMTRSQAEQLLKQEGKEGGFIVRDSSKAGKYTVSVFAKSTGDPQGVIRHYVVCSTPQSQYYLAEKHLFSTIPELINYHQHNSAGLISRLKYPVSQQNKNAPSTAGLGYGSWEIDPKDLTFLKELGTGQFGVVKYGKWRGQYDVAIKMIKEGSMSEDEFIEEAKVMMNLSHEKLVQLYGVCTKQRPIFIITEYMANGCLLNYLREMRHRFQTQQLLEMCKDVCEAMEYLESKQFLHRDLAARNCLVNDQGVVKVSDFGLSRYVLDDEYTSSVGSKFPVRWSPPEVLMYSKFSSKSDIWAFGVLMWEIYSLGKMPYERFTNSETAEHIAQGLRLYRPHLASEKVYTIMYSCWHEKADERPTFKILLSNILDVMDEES

`C=CC(=O)N1CC[C@@H](Nc2n[nH]c3nccc(-c4ccc([C@H](C)NC(=O)c5ccc(C(C)(C)C)cc5)cc4)c23)C1` [Example 97, 4-tert-butyl-N-[(1S)-1-[4-(3-{[(3R)-1-(prop-2-enoyl)pyrrolidin-3-yl]amino}-1H-pyrazolo[3,4-b]pyridin-4-yl)phenyl]ethyl]benzamide]: the IC50 on panel of kinases is 709 nM; at TEC, 1570 nM; on Btk (setting [1]), 309 nM. Moreover, the TEC/Btk at TEC amounted to 5.
Consider `C=CC(=O)N1CC[C@@H](Nc2n[nH]c3nccc(-c4ccc(CNC(=O)c5ccc(C)cc5)c(F)c4)c23)C1` [Compound 34, (R)—N-(4-(3-((1-acryloylpyrrolidin-3-yl)amino)-1H-pyrazolo[3,4-b]pyridin-4-yl)-2-fluorobenzyl)-4-methylbenzamide], for which the IC50 turned out to be 16 nM at panel of kinases, 55 nM at TEC and 1.76 nM on Btk (setting [1]). Moreover, the TEC/Btk at TEC amounted to 31.
On to `C=CC(=O)N[C@H]1CC[C@@H](Nc2n[nH]c3nccc(-c4ccc(CNC(=O)c5noc(C(C)(C)C)n5)c(F)c4)c23)CC1` [Example 154, 5-tert-butyl-N-{[2-fluoro-4-(3-{[(1s,4s)-4-(prop-2-enamido)cyclohexyl]amino}-1H-pyrazolo[3,4-b]pyridin-4-yl)phenyl]methyl}-1,2,4-oxadiazole-3-carboxamide], for which the IC50 on panel of kinases was 229 nM; against TEC, 409 nM; at Btk (setting [2]), less than 10 nM; on Btk (setting [1]), 0.237 nM. In addition, at TEC, the TEC/Btk came out at 1726.
On to `C=CC(=O)N[C@@H]1CCN(c2n[nH]c3nccc(-c4ccc([C@@H](C)NC(=O)c5cc(C(C)(C)O)on5)cc4)c23)C1` [Example 382, 5-(2-hydroxypropan-2-yl)-N-{(1R)-1-[4-(3-{(3R)-3-[(prop-2-enoyl)amino]pyrrolidin-1-yl}-1H-pyrazolo[3,4-b]pyridin-4-yl)phenyl]ethyl}-1,2-oxazole-3-carboxamide], for which the figures for the IC50 on panel of kinases, at TEC and on Btk (setting [1]) were 435 nM, 433 nM and 1.81 nM, respectively.
As to `CC(=O)N[C@@H]1CCN(c2n[nH]c3nccc(-c4ccc(CNC(=O)c5noc(C(C)C)n5)c(F)c4)c23)C1` [Example 369, N-[(4-{3-[(3R)-3-acetamidopyrrolidin-1-yl]-1H-pyrazolo[3,4-b]pyridin-4-yl}-2-fluorophenyl)methyl]-5-(propan-2-yl)-1,2,4-oxadiazole-3-carboxamide], the IC50 on panel of kinases was determined as 1140 nM; against TEC, 1480 nM; at Btk (setting [1]), 4.66 nM.
For `CCc1cc(C(=O)NCc2ccc(-c3ccnc4[nH]nc(N[C@@H]5CCCN[C@@H]5C)c34)cc2F)no1` [Example 170, 5-ethyl-N-{[2-fluoro-4-(3-{[(2R,3R)-2-methylpiperidin-3-yl]amino}-1H-pyrazolo[3,4-b]pyridin-4-yl)phenyl]methyl}-1,2-oxazole-3-carboxamide], the IC50 at panel of kinases, on TEC and at Btk (setting [1]) was more than 10000 nM throughout.
On to `C=CC(=O)N1CCC(Nc2n[nH]c3nccc(-c4ccc(CNC(=O)c5ccc(C(C)(C)C)cc5)c(F)c4)c23)CC1` [Example 104, 4-tert-butyl-N-{[2-fluoro-4-(3-{[1-(prop-2-enoyl)piperidin-4-yl]amino}-1H-pyrazolo[3,4-b]pyridin-4-yl)phenyl]methyl}benzamide], for which the IC50 on panel of kinases was 897 nM; on TEC it was 1560 nM; at Btk (setting [2]) it was less than 10 nM; on Btk (setting [1]), 1.87 nM. Moreover, the TEC/Btk at TEC was found to be 834.
Turning to `C=CC(=O)N[C@@H]1CCCC[C@H]1Nc1n[nH]c2nccc(-c3ccc(CNC(=O)c4cc(C(C)(C)C)on4)c(F)c3)c12` [Example 313, 5-tert-butyl-N-({2-fluoro-4-[3-({(1R,2R)-2-[(prop-2-enoyl)amino]cyclohexyl}amino)-1H-pyrazolo[3,4-b]pyridin-4-yl]phenyl}methyl)-1,2-oxazole-3-carboxamide], the IC50 amounted to 5230 nM on panel of kinases and 8.74 nM on Btk (setting [1]).
In the case of `C[C@@H](NC(=O)c1nc(C(C)(C)C)no1)c1ccc(-c2ccnc3[nH]nc(NC4CCN(S(C)(=O)=O)C4)c23)cc1` (stereo partly drawn) [Example 386, 3-tert-butyl-N-{(1R)-1-[4-(3-{[1-(methanesulfonyl)pyrrolidin-3-yl]amino}-1H-pyrazolo[3,4-b]pyridin-4-yl)phenyl]ethyl}-1,2,4-oxadiazole-5-carboxamide], the IC50 was found to be 6920 nM at panel of kinases and 10.5 nM at Btk (setting [1]).
The like results for `CC(=O)N[C@@H]1CCN(c2n[nH]c3nccc(-c4ccc([C@@H](C)NC(=O)c5cc(C(C)(C)O)on5)cc4)c23)C1` [Example 363, N-[(1R)-1-(4-{3-[(3R)-3-acetamidopyrrolidin-1-yl]-1H-pyrazolo[3,4-b]pyridin-4-yl}phenyl)ethyl]-5-(2-hydroxypropan-2-yl)-1,2-oxazole-3-carboxamide] were, in that order, 5500 nM and 48.3 nM.
With `C[C@@H](NC(=O)c1nc(C(C)(C)C)no1)c1ccc(-c2ccnc3[nH]nc(NC4CCOCC4)c23)cc1` [Example 218, 3-tert-butyl-N-[(1R)-1-(4-{3-[(oxan-4-yl)amino]-1H-pyrazolo[3,4-b]pyridin-4-yl}phenyl)ethyl]-1,2,4-oxadiazole-5-carboxamide], the values for the IC50 on panel of kinases and at Btk (setting [1]) were 6600 nM and 19.1 nM, respectively.
For `O=C(NCc1ccc(-c2ccnc3[nH]nc(NC4CCNC4)c23)cc1F)c1cc(Cl)on1` (stereo not shown) [Example 341, 5-chloro-N-[(2-fluoro-4-{3-[(pyrrolidin-3-yl)amino]-1H-pyrazolo[3,4-b]pyridin-4-yl}phenyl)methyl]-1,2-oxazole-3-carboxamide], in that order: 2030 nM and 901 nM.
On to `C[C@@H](NC(=O)c1nc(C(C)(C)C)no1)c1ccc(-c2ccnc3[nH]nc(NC4CCN(S(C)(=O)=O)CC4)c23)cc1` [Example 387, 3-tert-butyl-N-{(1R)-1-[4-(3-{[1-(methanesulfonyl)piperidin-4-yl]amino}-1H-pyrazolo[3,4-b]pyridin-4-yl)phenyl]ethyl}-1,2,4-oxadiazole-5-carboxamide], for which the IC50 on panel of kinases is 7210 nM; on Btk (setting [1]) it was 27.3 nM.
`C[C@@H](NC(=O)c1noc(C(C)(C)C)n1)c1ccc(-c2ccnc3[nH]nc(C4=CCCN(C(=O)N(C)C)C4)c23)cc1` [Example 254, 5-[4-(4-{(1R)-1-[(5-tert-butyl-1,2,4-oxadiazole-3-carbonyl)amino]ethyl}phenyl)-1H-pyrazolo[3,4-b]pyridin-3-yl]-N,N-dimethyl-3,6-dihydropyridine-1(2H)-carboxamide]: the IC50 was 9080 nM on panel of kinases and 40.8 nM on Btk (setting [1]).
Turning to `CC(=O)N[C@@H]1CCN(c2n[nH]c3nccc(-c4ccc(CNC(=O)c5nc6c(o5)CCCC6)c(F)c4)c23)C1` [Example 198, N-[(4-{3-[(3R)-3-acetamidopyrrolidin-1-yl]-1H-pyrazolo[3,4-b]pyridin-4-yl}-2-fluorophenyl)methyl]-4,5,6,7-tetrahydro-1,3-benzoxazole-2-carboxamide], the IC50 at panel of kinases is 3180 nM; at Btk (setting [1]), 137 nM.
